Source: US20250041387A1, “POLYPEPTIDE SEQUENCE OF KDM6B AND APPLICATION OF KDM6B IN REGULATING AND CONTROLLING FUNCTION OF MESENCHYMAL STEM CELL” (BEIJING STOMATOLOGICAL HOSPITAL, CAPITAL MEDICAL UNIVERSITY, priority 2021, published 2025)

Experiments:
[1] = tested on: bone marrow mesenchymal stem cells; assay: β-gal staining and quantification in BMSCs; type: cell-based, human; conditions: FIG. 4B, C
Description: (§1) Prior to the start of the experiment, the GENMED staining solution (Reagent E) in the kit was taken out of the refrigerator at −20° C., and thawed in an ice bath. Then 9.5 mL of GENMED dilution (Reagent D) was added into a 15 ml conical centrifuge tube, added with 500 μL of GENMED staining solution (Reagent E), mixed well, and then preheated in a 37° C. thermostatic sink. The obtained mixture was labeled as GENMED staining working solution.

[2] = tested on: senescent bone marrow mesenchymal stem cells; assay: β-gal staining in senescent BMSCs of aged mice; type: cell-based, C57BL/6 mice; conditions: FIG. 5A
Description: as §1

[3] = tested on: senescent bone marrow mesenchymal stem cells; assay: ALP activity of senescent BMSCs of aged mice; type: cell-based, C57BL/6 mice; conditions: 3 days of osteogenic induction, FIG. 5B
Description: • (1) Osteogenic culture medium was purchased from Invitrogen, USA. • (2) Quantification of alkaline phosphatase (ALP) activity • 1) After 3 days of osteogenic induction, the culture medium was discarded, and the cells were washed with PBS twice. • 2) The cells were added with 500 μL of lysis buffer, and incubated at 37° C. for 15 minutes. • 3) The cells were scraped, transferred into a 1.5 mL EP tube, and centrifuged at 14000 rpm at 4° C. for 10 minutes. The supernatant was transferred into a new EP tube to measure the protein concentration, and the procedure was the same as that in Western blot. • 4) The capsule from the alkaline phosphatase kit (Stock substrate Sol.) was dissolved with 5 mL of distilled water under vigorous shaking, and mixed well. • 5) 50 μL of ALP buffer was added to 50 μL of Stock substrate Sol to obtain a mixture. 100 μL of the mixture was added to each well in a 96-well plate, then added with 10 μL of sample, and mixed well. A blank well without sample added was set for zero adjustment. • 6) The plate was incubated at 37° C. for 15 minutes, and the OD value was measured at 405 nm.
(§2) Result of ALP activity was calculated according to Y/incubation time/protein concentration. • (3) Alizarin red staining • 1) After two weeks of osteogenic induction, the culture medium was discarded. The cells were washed three times with PBS pre-cooled at 4° C., and fixed with 70% ethanol at 4° C. for 1 hour. • 2) The cells were washed 2 times with double distilled water, and stained with 40 mM alizarin red solution (pH 4.2) at room temperature for 10 minutes. The staining was observed by naked eyes. • 3) The cells were washed 3 times with double-distilled water. • (4) Determination of Ca^2+ concentration

[4] = tested on: senescent bone marrow mesenchymal stem cells; assay: Alizarin red staining and calcium quantification in senescent BMSCs of aged mice; type: cell-based, C57BL/6 mice; conditions: 2 weeks of osteogenic induction, FIG. 5C, D
Description: as §2
(§3) To quantitatively determine the concentration of calcium, the cells were added with 10% cetyl pyridinium chloride for dissolution for 30 minutes at room temperature. The OD value was measured at 562 nm using a spectrophotometer, and the calcium ion concentration of the samples was calculated according to the standard curve of calcium ion concentration, with the total protein concentration as an internal reference.

[5] = tested on: stem cells from apical papilla; assay: β-gal staining and quantification in SCAPs; type: cell-based, human; conditions: SCAPs treated with polypeptide, FIG. 8C, D
Description: as §1

[6] = tested on: stem cells from apical papilla; assay: Alizarin red staining and calcium quantification in SCAPs; type: cell-based, human; conditions: SCAPs treated with polypeptide, 2 weeks of odontogenic induction, FIG. 8F, G
Description: as §2, §3

[7] = target: KDM6B/WDR5 protein complex (Homo sapiens, UniProt P61964); assay: Co-IP of KDM6B/WDR5 complex in stem cells from apical papilla; type: cell-based; set-up: endogenous in cells; host or cells: stem cells from apical papilla (SCAPs); conditions: SCAPs treated with polypeptide, compared to control group; FIG. 8A
Description: Protein was extracted from cells of knockout group and overexpression group using IP lysate. The knockout group cells SCAPs-Scramsh and SCAPs-KDM6Bsh, SCAPs-Scramsh and SCAPs-WDR5sh, BMSCs-Scramsh and BMSCs-WDR5sh were added with KDM6B antibody, WDR5 antibody, and IgG antibody, respectively, and then rotated on a shaker at 4° C. overnight. On the next day, the cells were added with Protein A/G beads and rotated on a rotary shaker at 4° C. for 2 hours. A complex of protein-antibody-agarose bead was formed, and the formation of a protein complex of KDM6B and WDR5WB was detected by WB. The overexpression group cells SCAPs-Vector, SCAPs-HA-KDM6B, SCAPs-HA-KDM6B-mut102, and SCAPs-HA-KDM6B-mut114 were added with ProteinA/G beads with HA antibody, and cells SCAPs Vector and SCAPs-Myc-WDR5 were added with ProteinA/G beads with Myc antibody. All cells were incubated overnight to form a complex of protein-antibody-agarose bead. The formation of a protein complex of KDM6B and WDR5 was detected by WB method. • (2) Grouping: Input group (loading amount of 25 μg); antibody group (loading amount of 800 μg, 2 μg of antibody); IgG group (loading amount of 800 μg, 2 μg of antibody). Samples were diluted with lysate. • (3) Preparation of protein A/G beads
The protein A/G beads were washed 4 times with PBS, and centrifuged at 2000 g for 2 minutes. […]

Substance | number of β-gal positive cells (quantification) [1] | number of β-gal positive cells (quantification) ([1]; listed as 114 peptide) | number of β-gal positive cells [2] | ALP activity [3] | ALP activity ([3]; listed as 114-peptide) | mineralization capacity, quantification of calcium ion [4] | mineralization capacity, quantification of calcium ion ([4]; listed as 114 peptide) | number of β-gal positive cells (quantification) [5] | number of β-gal positive cells (quantification) ([5]; listed as 114 peptide) | mineralization capacity, quantification of calcium ion [6] | mineralization capacity, quantification of calcium ion ([6]; listed as 114 peptide) | binding of KDM6B to WDR5 (Co-IP) [7] | number of β-gal positive cells (quantification) ([1]; listed as 102 peptide) | ALP activity ([3]; listed as 102-peptide) | mineralization capacity, quantification of calcium ion ([4]; listed as 102 peptide) | number of β-gal positive cells (quantification) ([5]; listed as 102 peptide) | mineralization capacity, quantification of calcium ion ([6]; listed as 102 peptide)
FITC-(Acp)-ADLTISHCAADVVRAYGRKKRRQRRR [peptide 114] | significant reduction | 16.76 | significant reduction | promoted | 7.612 | significantly higher | 1.251 | significant reduction | 3.978 | significantly higher | 1.619 | reduced | – | – | – | – | –
FITC-(Acp)-KEKSRRVLGNLDLQSYGRKKRRQRRR [peptide 102] | significant reduction | – | significant reduction | promoted | – | significantly higher | – | significant reduction | – | significantly higher | – | reduced | 19.33 | 6.951 | 1.154 | 7.296 | 1.637
